One experiment concerns Jurkat. Nature of the experiment: Cell proliferation modulatory activity, Jurkat. The format is cell-based. As to conditions: Homo sapiens.
In a further experiment the target is recombinant human CK2 (Homo sapiens (Human), UniProt P68400). As to the kind of experiment: CK2 assay (cell-free, 33P-ATP filter plate). The format is biochemical. As to conditions: cell-free assay; for inhibition at 0.5 µM: 500 nM compound, read-out: CK2: % inh 500 nM.
The target in another experiment is Flt3 (Homo sapiens (Human), UniProt P36888). Nature of the experiment: FLT-3 kinase activity in cell free in vitro assay. The experiment is classed as biochemical. As to conditions: cell-free assay.
Chain of Flt3 (P36888 27-993): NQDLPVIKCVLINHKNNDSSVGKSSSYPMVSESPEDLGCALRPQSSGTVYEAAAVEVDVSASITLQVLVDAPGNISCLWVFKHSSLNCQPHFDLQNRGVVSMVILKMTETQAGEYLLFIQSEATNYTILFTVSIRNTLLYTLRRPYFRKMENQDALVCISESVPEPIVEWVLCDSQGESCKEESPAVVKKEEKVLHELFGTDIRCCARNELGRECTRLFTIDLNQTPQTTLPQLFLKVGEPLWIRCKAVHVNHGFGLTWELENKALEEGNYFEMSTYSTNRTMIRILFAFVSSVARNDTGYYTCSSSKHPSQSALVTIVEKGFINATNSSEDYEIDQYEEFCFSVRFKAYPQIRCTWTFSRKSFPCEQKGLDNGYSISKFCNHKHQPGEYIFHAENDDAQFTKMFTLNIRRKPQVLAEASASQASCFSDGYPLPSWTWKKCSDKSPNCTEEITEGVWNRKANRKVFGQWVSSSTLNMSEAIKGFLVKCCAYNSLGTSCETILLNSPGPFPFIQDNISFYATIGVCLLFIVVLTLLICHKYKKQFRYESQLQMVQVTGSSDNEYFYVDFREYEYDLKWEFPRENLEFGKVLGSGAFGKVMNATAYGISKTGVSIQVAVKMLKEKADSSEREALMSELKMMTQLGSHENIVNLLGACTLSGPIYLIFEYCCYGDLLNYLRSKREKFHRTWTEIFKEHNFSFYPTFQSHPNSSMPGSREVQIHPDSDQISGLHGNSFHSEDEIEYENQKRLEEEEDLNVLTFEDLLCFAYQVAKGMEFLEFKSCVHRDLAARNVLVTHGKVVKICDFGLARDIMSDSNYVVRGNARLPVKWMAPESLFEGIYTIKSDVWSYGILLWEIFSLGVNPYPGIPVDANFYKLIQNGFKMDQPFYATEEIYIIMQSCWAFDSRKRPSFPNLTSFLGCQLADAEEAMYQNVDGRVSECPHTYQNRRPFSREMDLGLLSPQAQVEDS
The next experiment has as its target recombinant human PIM1 (Homo sapiens (Human), UniProt P11309). As to the kind of experiment: PIM-1 kinase activity in cell-free in vitro assay. As to conditions: cell-free assay; for inhibition at 0.5 µM: 500 nM compound, read-out: PIM-1: % inh 500 nM. The format is biochemical.
In experiment [1] the test system is HCT-116 human colorectal carcinoma cells. Nature of the experiment: Cell-proliferation assay using Alamar Blue dye.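 Also: cells exposed to compound for about 4 days, then Alamar Blue added and dye fluorescence read after about 4 h, compared with medium-only control wells.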 As to conditions: Homo sapiens. The format is cell-based.
Experiment [2] has as its system K-562. As to the kind of experiment: Cell proliferation modulatory activity, K-562. The format is cell-based. As to conditions: Homo sapiens, K562.
The subject of experiment [3] is MV-4-11. As to the kind of experiment: Cell proliferation modulatory activity, MV-4-11. The format is cell-based. The following applies: Homo sapiens, MV4-11.
Experiment [4] concerns K-562. As to the kind of experiment: Cell proliferation modulatory activity, K-562. As to conditions: Homo sapiens, K562; K-562 cells. The format is cell-based.
For experiment [5], the system named is MV-4-11. Nature of the experiment: Cell proliferation modulatory activity, MV-4-11. The format is cell-based. As to conditions: Homo sapiens, MV4-11; MV-4-11 cells.
[6] abbreviates: HCT-116, HCT-116, second HCT-116 column (c8), read-out: HCT-116 (uM), cell proliferation modulatory activity.
Setting [7] is: HCT-116, second HCT-116 column (c8), read-out: HCT-116 (uM) cell proliferation modulatory activity.

Like-named read-outs stand apart in the source and are kept apart here. Some results are limits rather than exact numbers.

Chain of recombinant human CK2 (P68400 whole entry): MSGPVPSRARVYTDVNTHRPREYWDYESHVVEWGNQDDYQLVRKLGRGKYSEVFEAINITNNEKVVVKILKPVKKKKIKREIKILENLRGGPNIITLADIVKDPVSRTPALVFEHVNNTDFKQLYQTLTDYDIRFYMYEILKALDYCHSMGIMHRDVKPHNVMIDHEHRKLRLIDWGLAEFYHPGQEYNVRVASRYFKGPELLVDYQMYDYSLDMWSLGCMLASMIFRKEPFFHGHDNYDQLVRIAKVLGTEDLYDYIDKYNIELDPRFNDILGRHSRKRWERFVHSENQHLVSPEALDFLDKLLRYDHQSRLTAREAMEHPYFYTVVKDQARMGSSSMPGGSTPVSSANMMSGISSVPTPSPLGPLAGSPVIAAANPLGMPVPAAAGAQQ
Chain of recombinant human CK2 (P67870 whole entry partner): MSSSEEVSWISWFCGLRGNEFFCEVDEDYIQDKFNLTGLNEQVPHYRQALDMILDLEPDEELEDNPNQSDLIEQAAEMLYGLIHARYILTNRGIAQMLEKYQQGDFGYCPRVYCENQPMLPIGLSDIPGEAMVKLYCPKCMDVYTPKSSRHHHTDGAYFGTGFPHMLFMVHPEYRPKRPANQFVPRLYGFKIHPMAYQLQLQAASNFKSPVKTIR
Chain of recombinant human PIM1 (P11309 whole entry): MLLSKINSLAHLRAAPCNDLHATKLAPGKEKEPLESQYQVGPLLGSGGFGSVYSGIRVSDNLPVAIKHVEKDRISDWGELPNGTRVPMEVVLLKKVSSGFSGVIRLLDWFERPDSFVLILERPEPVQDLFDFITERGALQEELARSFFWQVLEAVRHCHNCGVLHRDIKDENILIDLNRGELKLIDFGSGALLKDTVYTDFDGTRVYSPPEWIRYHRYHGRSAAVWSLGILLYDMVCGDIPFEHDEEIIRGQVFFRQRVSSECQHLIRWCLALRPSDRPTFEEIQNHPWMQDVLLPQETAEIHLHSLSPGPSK

For the compound `CNC(=O)c1ccc2c(c1)nc(Nc1cccc(Cl)c1)c1ccncc12`, the IC50 with Jurkat is 13.7 µM; on recombinant human CK2 (15 um ATP, read-out: CK2 (15 um ATP) IC50), above 750 nM; on Flt3 (read-out: FLT-3) it was above 0.4 µM; in [1] (setting [6]), above 10 µM; with K-562 [2] it was above 10 µM. For the same compound, the inhibition at 0.5 µM at recombinant human PIM1 is -39.8%.
In the case of `O=C(Nc1ccccc1)c1ccc2c(c1)nc(Nc1cccc(Cl)c1)c1ccncc12`, the IC50 at Flt3 (read-out: FLT-3) was above 0.4 µM; in experiment [1] (setting [6]) it was above 10 µM; with K-562 [2], above 10 µM; in the experiment with MV-4-11 [3] it was 0.069 µM. Moreover, the inhibition at 0.5 µM at recombinant human PIM1 was -0.772%.
On to `Clc1cccc(Nc2nc3ccccc3c3cnccc23)c1`, for which the inhibition at 0.5 µM is -42.8% at recombinant human CK2 and -22.8% at recombinant human PIM1. Also, the IC50 in the experiment with K-562 [4] was above 10 µM; at Flt3 (read-out: FLT-3 (uM) IC50), 0.344 µM; in [1] (setting [7]), above 10 µM; with MV-4-11 [5], 2.82 µM.
As to `O=C(O)c1ccc2nc(Nc3cccc(Cl)c3)c3ccncc3c2c1`, the results for the inhibition at 0.5 µM on recombinant human CK2 and on recombinant human PIM1 were 67.8% and 11.9%, respectively. The IC50 in the experiment on K-562 [4] is above 10 µM; on Flt3 (read-out: FLT-3 (uM) IC50) it was above 0.4 µM; in experiment [1] (setting [7]), above 10 µM; in the experiment with MV-4-11 [5], above 10 µM.
Regarding `O=C(O)c1ccc2c(c1)nc(Nc1cc(F)cc(Cl)c1)c1ccncc12`, the inhibition at 0.5 µM on recombinant human CK2 was found to be 98.7%; at recombinant human PIM1 it was 101%. For the same compound, the IC50 in the experiment with K-562 [4] is 1.56 µM; at Flt3 (read-out: FLT-3 (uM) IC50), 0.031 µM; on recombinant human PIM1, 75 nM; in experiment [1] (setting [7]), above 10 µM; in the experiment with MV-4-11 [5], 0.25 µM.
For `O=C(O)c1ccc2c(c1)nc(Nc1cccc(Cl)c1)c1cnccc12`, the inhibition at 0.5 µM at recombinant human CK2 was -9.32%; at recombinant human PIM1, 71.5%. For the same compound, the IC50 in the experiment on K-562 [4] was above 10 µM; at Flt3 (read-out: FLT-3 (uM) IC50), above 0.4 µM; at recombinant human PIM1 it was 122 nM; in experiment [1] (setting [7]) it was above 10 µM; with MV-4-11 [5], above 10 µM.
Turning to `NC(=O)c1ccc2c(c1)nc(Nc1ccc(F)c(Cl)c1)c1ccncc12`, the figures for the inhibition at 0.5 µM on recombinant human CK2 and on recombinant human PIM1 were 66.1% and -9.45%, respectively. In addition, the IC50 with K-562 [4] is above 10 µM; on Flt3 (read-out: FLT-3 (uM) IC50), 0.167 µM; in experiment [1] (setting [7]) it was above 10 µM; in the experiment on MV-4-11 [5], 0.373 µM.
On to `NNC(=O)c1ccc2c(c1)nc(Nc1cccc(Cl)c1)c1ccncc12`, for which the results for the inhibition at 0.5 µM at recombinant human CK2 and on recombinant human PIM1 were 34.9% and -10.8%, respectively. The IC50 with K-562 [4] was above 10 µM; at Flt3 (read-out: FLT-3 (uM) IC50), 0.075 µM; in experiment [1] (setting [7]), above 10 µM; in the experiment on MV-4-11 [5] it was 2.14 µM.
For `Clc1cccc(Nc2nc3cc(-c4nnco4)ccc3c3cnccc23)c1`, the inhibition at 0.5 µM was 29.9% at recombinant human CK2 and -0.614% at recombinant human PIM1. Also, the IC50 was above 10 µM in the experiment on K-562 [4], 0.236 µM on Flt3 (read-out: FLT-3 (uM) IC50), 5.17 µM in experiment [1] (setting [7]) and 0.501 µM with MV-4-11 [5].
As for `NC(=O)c1ccc2c(c1)nc(Nc1cccc(C(F)(F)F)c1)c1ccncc12`, the results for the inhibition at 0.5 µM on recombinant human CK2 and at recombinant human PIM1 were 34.4% and 1.09%, respectively. Moreover, the IC50 in the experiment with K-562 [4] worked out at 2.46 µM; at Flt3 (read-out: FLT-3 (uM) IC50) it was 0.006 µM; in experiment [1] (setting [7]), 4.28 µM; with MV-4-11 [5], 0.12 µM.
`CONC(=O)c1ccc2c(c1)nc(Nc1cccc(Cl)c1)c1ccncc12`: the inhibition at 0.5 µM at recombinant human CK2 is 14.2%; on recombinant human PIM1, -15.6%. The IC50 in the experiment with K-562 [4] is 2.61 µM; on Flt3 (read-out: FLT-3 (uM) IC50), above 0.4 µM; in experiment [1] (setting [7]) it was 4.54 µM; with MV-4-11 [5] it was 0.691 µM.
`Clc1cccc(Nc2nc3cc(-c4nnc[nH]4)ccc3c3cnccc23)c1`: the inhibition at 0.5 µM on recombinant human CK2 is -2.18%; at recombinant human PIM1, -19.3%. Further, the IC50 was 0.546 µM in the experiment with K-562 [4], 0.09 µM on Flt3 (read-out: FLT-3 (uM) IC50), above 10 µM in experiment [1] (setting [7]) and 1.06 µM in the experiment on MV-4-11 [5].
Take `O=C(O)c1ccc2c(c1)nc(Nc1cccc(C(F)(F)F)c1)c1nc(NC3CC3)ncc12` [drawing 1596]: the figures for the IC50 in the experiment on Jurkat and at Flt3 (read-out: FLT-3) were 3.13 µM and above 0.4 µM, respectively. The inhibition at 0.5 µM at recombinant human PIM1 was -17.3%.

Values taken from patent US8168651B2, “Protein kinase modulators” (Cylene Pharmaceuticals, Inc., priority 2008, dated 2012).
